We go through 3 molecules from article PMC4019636, “Rational Design of Berberine-Based FtsZ Inhibitors with Broad-Spectrum Antibacterial Activity” (PLoS ONE, 2014).

In assay [1] the test system is B. subtilis strain 168 cells. Description: Bacterial morphology and membrane staining studies. It is filed as cell-based. Conditions: 4 µM compound. The procedure:
The B. subtilis strain 168 cells were grown in LB medium. The cultures at an A600 of 0.01 from an overnight culture were inoculated in the same medium containing different concentrations of the test compounds and grown at 37°C for 4 h. The cells for morphology studies were harvested and resuspended in 100 µL of PBS (phosphate buffered saline) buffer containing 0.25% agarose. For membrane staining, the B. subtilis cells were further incubated with 1.6 µM of FM 4–64 for an additional 30 min at 37°C without shaking before harvested and resuspended in 100 µL PBS buffer containing 0.25% agarose. 10 µL of the suspension mixture were then placed on a microscopic slide pretreated with 0.1% (w/v) poly-L-lysine and the morphology of the bacterial cells was observed under a phase-contrast optical microscope at 40× magnification. The images were captured using an Olympus Bio Imaging Navigator FSX 100 microscope.

Assay [2] deals with GFP-tagged FtsZ in E. coli JM109 WM647. Description: Z-ring visualization in E. coli cells. The format is cell-based. Conditions: 48 µM compound, 4 h at 37°C. The procedure:
A culture of E. coli JM109 WM647 containing the IPTG-inducible plasmid for the overexpression of green fluorescence protein (GFP)-tagged FtsZ was grown in LB medium supplemented with 30 µg/mL of chloramphenicol. After overnight incubation, a sample of the culture was diluted to 1% in the LB medium containing different concentrations of the test compound and 40 µM of IPTG. After 4 h incubation at 37°C, the E. coli cells were fixed, harvested and resuspended in PBS buffer containing 0.25% of agarose. 10 µL of sample mixture were added to a pretreated microscopic slide with 0.1% (w/v) poly-L-lysine and visualized using a fluorescence microscope at 60× oil immersion magnification with a standard FITC filter set. The images were captured using an Olympus Bio Imaging Navigator FSX 100 microscope.

For assay [3], the target named is T1, S. aureus FtsZ (Staphylococcus aureus, UniProt P0A031).
T1 construct: made in house; host or cells: E. coli BL21(DE3)
T1 sequence (P0A031 1-390): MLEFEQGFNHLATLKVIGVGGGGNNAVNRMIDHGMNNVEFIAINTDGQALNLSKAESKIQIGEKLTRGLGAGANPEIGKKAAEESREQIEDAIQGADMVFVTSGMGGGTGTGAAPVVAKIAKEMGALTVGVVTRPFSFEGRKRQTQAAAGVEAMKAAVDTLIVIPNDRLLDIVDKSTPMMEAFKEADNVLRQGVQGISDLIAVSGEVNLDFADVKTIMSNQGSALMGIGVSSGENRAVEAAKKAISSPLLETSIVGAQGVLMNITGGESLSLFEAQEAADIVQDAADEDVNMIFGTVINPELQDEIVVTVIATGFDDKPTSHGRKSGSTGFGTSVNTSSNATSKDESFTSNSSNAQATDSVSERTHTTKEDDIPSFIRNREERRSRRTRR
Description: Light scattering assay of FtsZ polymerization. The format is biochemical. Conditions: for inhibition of polymerization in the presence of Triton X-100: 0.01% Triton X-100, berberine 200 and 500 µM, compound 2 10 and 25 µM. The procedure:
(§1) E. coli BL21(DE3) cells were transformed with the pRSET-A-S vector carrying S. aureus FtsZ with a 6-histidine tag attached at its N-terminus under the control of a T7 promoter. […] When the OD600 reached 0.8, protein expression was induced with 0.4 mM isopropyl-β-D-thiogalactopyranoside (IPTG) for 4 h. Cells were harvested by centrifugation at 9000 rpm for 20 min at 4°C. The cell pellet was resuspended in 20 mL of solubilization buffer (50 mM Tris-HCl, 150 mM NaCl, 1 mM PMSF and 1 mM EDTA, pH 7.4) and then lysed with 1 mg/mL of lysozyme. The mixture was incubated for 1 h on ice. The cells were disrupted by sonication and the crude lysate obtained was centrifuged at 13,000 rpm for 1 h at 4°C. The supernatant containing 6-histidine tagged S. aureus FtsZ was collected and loaded onto a nickel charged HiTrap chelating column pre-equilibrated with starting buffer (20 mM sodium phosphate buffer, 0.5 M NaCl, pH 7.4). The column was then washed with 8 column volumes of the starting buffer to remove the unbound proteins, and the histidine-tagged enzyme was eluted by a linear gradient of 0−0.2 M imidazole. Fractions containing S. aureus FtsZ were pooled, buffer-exchanged with 20 mM NH4HCO3 (pH 8.0) at 4°C, lyophilized, and stored at −20°C. A stock solution of S. aureus FtsZ for the subsequent bioassay was prepared from the lyophilized powder.
The light scattering assay was performed using a protocol adapted from the literature. The polymerization and depolymerization of recombinant S. aureus FtsZ was measured using 90° light scattering in a thermostatically (37°C) controlled fluorescence spectrometer (Perkin Elmer, USA). Both excitation and emission wavelengths were set to 600 nm with a slit width of 2.5 nm. S. aureus FtsZ (6 µM) in 50 mM of MOPS buffer (pH 6.5) was incubated with vehicle (1% DMSO) or different concentrations of the test compound for 10 min at 25°C. 50 mM KCl and 10 mM MgCl2 were then added to establish a baseline. After 8 min, a final concentration of 1 mM GTP was added at the last fraction and the increase in light scattering was measured for an additional 2000s. The rate and extent of polymerization were measured. Appropriate blanks were subtracted from all experimental data. Moreover, in order to rule out unselective inhibition by formation of aggregates, control experiments with 0.01% (v/v) Triton X-100 from a freshly prepared 1% (v/v) stock solution were performed for berberine and compound 2 [40], [41]. Reported results are the average of three independent experiments.

In assay [4] the target is T1, S. aureus FtsZ. Description: Transmission electron microscopy of FtsZ polymers. It is filed as biochemical. Particulars: FtsZ 12 µM, TEM. On the procedure:
as §1, with “powder. […]” for “powder.”

One may read the inhibition as the relative decrease from the control value, in per cent. Low readings indicate a response near the control, high ones a response far below the control. For the molecule `COc1ccc2cc3[n+](cc2c1OCCCOc1ccc(Cl)cc1)CCc1cc2c(cc1-3)OCO2` [Compound 2], the “cell length of B. subtilis” value in assay [1] (4 h at 37°C, compared to untreated cells) is recorded as “significantly increased”. Besides, the “perturbation of the cell membrane (FM 4-64 staining)” value in assay [1] (B. subtilis 168, compared to untreated cells) is “did not induce any detectable perturbation”. The “Z-ring formation / localization of GFP-tagged FtsZ” value in assay [2] is reported as “caused mislocalization of the FtsZ protein”. Moreover, on S. aureus FtsZ [3] (10 µM, 25 µM and 50 µM compound), the “inhibition of S. aureus FtsZ polymerization at increasing concentrations” value is listed as “strongly inhibited the S. aureus FtsZ polymerization in a dose-dependent manner”. The inhibition at 50 µM on S. aureus FtsZ [3] (50 µM compound, FtsZ 6 µM, 1 mM GTP, light scattering) is approximately 70%. In addition, the “inhibition of polymerization in the presence of Triton X-100” value at S. aureus FtsZ [3] is “maintained”. Also, the “reduction of the thickness of the bundles of FtsZ protofilaments” value at S. aureus FtsZ [4] (4 µM compound) came to 70%.

Turning to `COc1ccc2cc3[n+](cc2c1OC)CCc1cc2c(cc1-3)OCO2` [Berberine, Berberine chloride], at S. aureus FtsZ [3] (200 µM compound, FtsZ 6 µM, 1 mM GTP, light scattering), the inhibition at 200 µM is approximately 30%. Also, the “inhibition of polymerization in the presence of Triton X-100” value on S. aureus FtsZ [3] is on record as “maintained”.

Take `COc1ccc2cc3[n+](cc2c1OCCCOc1ccccc1)CCc1cc2c(cc1-3)OCO2` [Compound 1]: the “reduction of the thickness of the bundles of FtsZ protofilaments” value at S. aureus FtsZ [4] (8.8 µM compound) is on record as 60%.
